Patent publication US20250127753A1, “PHARMACEUTICAL APPLICATION OF DIMYRICETIN-YL-DISELENIDE IN TUMORS” (Shanghai Spark Pharmaceutical Co., Ltd., priority 2023, published 2025)

What was measured:
T24 = assay: In vitro cell viability (CTG), T24; format: cell-based, Human; settings: T24 cells, 72 hours, CTG assay
Method: (§1) Collect cells in the exponential growth phase and count viable cells separately using a cell counter. Adjust the cell suspension to an appropriate concentration with the corresponding culture medium. Add 90 μL of the cell suspension to each well of a 96-well cell culture plate, with 3 replicate wells containing 5000 cells/well. Place the plate in an incubator at 37° C. with 5% CO2 overnight.
(§2) On the second day, add 10 μL of dimyricetin diselenide and cisplatin to the corresponding wells. The highest final concentration of dimyricetin diselenide is 300 μg/ml (i.e., 379 μM), and the highest final concentration of cisplatin is 300 μM. A total of 9 concentrations are prepared with a 3-fold dilution.
(§3) After 72 hours, detect cell viability using the CTG assay.
(§4) Using GraphPad Prism 8.0 software, an S-shaped dose-survival curve was plotted with log (inhibitor) as the x-axis and response as the y-axis, adopting the Variable slope (four parameters) model to calculate the IC50 value.

MBT-2 = assay: In vitro cell viability (CTG), MBT-2; format: cell-based, Mouse; settings: MBT-2 cells, 72 hours, CTG assay
Method: as §1, §2, §3, §4

HCC1954 = assay: In vitro cell viability (CTG), HCC1954; format: cell-based, Human; settings: HCC1954 cells, 72 hours, CTG assay
Method: as §1, §2, §3, §4

EMT-6 = assay: In vitro cell viability (CTG), EMT-6; format: cell-based, Mouse; settings: EMT-6 cells, 72 hours, CTG assay
Method: as §1, §2, §3, §4

HCT116 = assay: In vitro cell viability (CTG), HCT116; format: cell-based, Human; settings: HCT116 cells, 72 hours, CTG assay
Method: as §1, §2, §3, §4

CT-26.WT = assay: In vitro cell viability (CTG), CT-26.WT; format: cell-based, Mouse; settings: CT-26.WT cells, 72 hours, CTG assay
Method: as §1, §2, §3, §4

MKN45 = assay: In vitro cell viability (CTG), MKN45; format: cell-based, Human; settings: MKN45 cells, 72 hours, CTG assay
Method: as §1, §2, §3, §4

MFC = assay: In vitro cell viability (CTG), MFC; format: cell-based, Mouse; settings: MFC cells, 72 hours, CTG assay
Method: as §1, §2, §3, §4

786-O = assay: In vitro cell viability (CTG), 786-O; format: cell-based, Human; settings: 786-O cells, 72 hours, CTG assay
Method: as §1, §2, §3, §4

Renca = assay: In vitro cell viability (CTG), Renca; format: cell-based, Mouse; settings: Renca cells, 72 hours, CTG assay
Method: as §1, §2, §3, §4

Hep G2 = assay: In vitro cell viability (CTG), Hep G2; format: cell-based, Human; settings: Hep G2 cells, 72 hours, CTG assay
Method: as §1, §2, §3, §4

H22 = assay: In vitro cell viability (CTG), H22; format: cell-based, Mouse; settings: H22 cells, 72 hours, CTG assay
Method: as §1, §2, §3, §4

HCC827 = assay: In vitro cell viability (CTG), HCC827; format: cell-based, Human; settings: HCC827 cells, 72 hours, CTG assay
Method: as §1, §2, §3, §4

LL/2(LLC1) = assay: In vitro cell viability (CTG), LL/2(LLC1); format: cell-based, Mouse; settings: LL/2(LLC1) cells, 72 hours, CTG assay
Method: as §1, §2, §3, §4

A375 = assay: In vitro cell viability (CTG), A375; format: cell-based, Human; settings: A375 cells, 72 hours, CTG assay
Method: as §1, §2, §3, §4

B16-F10 = assay: In vitro cell viability (CTG), B16-F10; format: cell-based, Mouse; settings: B16-F10 cells, 72 hours, CTG assay
Method: as §1, §2, §3, §4

PANC-1 = assay: In vitro cell viability (CTG), PANC-1; format: cell-based, Human; settings: PANC-1 cells, 72 hours, CTG assay
Method: as §1, §2, §3, §4

Panc 02 = assay: In vitro cell viability (CTG), Panc 02; format: cell-based, Mouse; settings: Pance 02 cells, 72 hours, CTG assay
Method: as §1, §2, §3, §4

DU145 = assay: In vitro cell viability (CTG), DU145; format: cell-based, Human; settings: DU145 cells, 72 hours, CTG assay
Method: as §1, §2, §3, §4

RM-1 = assay: In vitro cell viability (CTG), RM-1; format: cell-based, Mouse; settings: RM-1 cells, 72 hours, CTG assay
Method: as §1, §2, §3, §4

[1] = test system: H22 subcutaneous transplanted tumor; assay: Pharmacodynamics of subcutaneous transplanted tumor in vivo (H22); design: species or system BALB/c mice
Method: • Animal species and strain: BALB/c mice • Drug administration history: None • Gender and age: Female, 6-7 weeks old • Breeder/supplier: Shanghai Jihui Laboratory Animal Breeding Co., Ltd. or other qualified suppliers • Experimental facility: Pengli Biology Animal Facility • Acclimation period: 3-7 days • Number of animals: 42 • Housing: SPF (Specific Pathogen Free) area • Indoor temperature: 20-26° C. • Indoor relative humidity: 40-70% • Lighting: Fluorescent lighting, 12 hours on (08:00-20:00) and 12 hours off • Animal housing: 2-6 mice per cage (same treatment group) • Food: Ad libitum access to irradiated feed (supplied by Jiangsu Xie Tong Pharmaceutical Bioengineering Co., Ltd., China) • Water: Ad libitum access to drinking water (tap water treated by reverse osmosis or autoclaving and acidified)
BALB/c mice were purchased from Shanghai Jihui Laboratory Animal Breeding Co., Ltd. for the H22 efficacy experiment. The animals were free of specific pathogens and arrived at Pengli Biology Animal Facility at approximately 5-6 weeks of age. The proposed animal handling procedures for the experimental protocol will be reviewed and approved by the IACUC (Institutional Animal Care and Use Committee) of Pengli Biology before the start of the experiment.
The H22 cell line used in this experiment was cultured in RPMI-1640 medium supplemented with 10% FBS in a CO2 incubator at 37° C. Prior to continuous culturing for ten passages, approximately 3×10^6 H22 cells were suspended in PBS and subcutaneously inoculated into each mouse at a volume of 100 μL. Mice were anesthetized with 3-4% isoflurane before inoculation.
When tumors grew to an average size of approximately 50-80 mm3, tumor-bearing mice were randomly divided into 4 groups of 8 mice each based on body weight and tumor size. The day of group assignment and drug administration was defined as Day 0. The grouping and dosing regimen are outlined in the table below.
Tumor Volume: Measure the tumor volume twice weekly after grouping for a consecutive 4 weeks. The calculation method for tumor volume (V) is as follows: V=(Length×Width^2)/2. The relative tumor volume (RTV) for each nude mouse is calculated as: RTV=Vt/V0, where Vt is the measured volume for each day and V0 is the volume at the start of treatment.
Relative Tumor Proliferation Rate (T/C %): Used to evaluate the antitumor activity of the drug. The relative tumor proliferation rate T/C (%) is calculated as the mean RTV of the treatment group (T) divided by the mean RTV of the negative control group (C), multiplied by 100%.
Tumor Growth Inhibition (TG1%): TG1%=(1−T/C)×100%, where T is the mean RTV of the treatment group and C is the mean RTV of the negative control group.

SK-OV-3 = assay: In vitro cell viability (CTG), SK-OV-3; format: cell-based, Human; settings: SK-OV-3 cells, 72 hours, CTG assay
Method: as §1, §2, §3, §4

tumor cells = assay: In vitro cell experiment, overall statement on the tumor cell panel; format: cell-based; settings: 21 tumor cell lines, 72 hours, CTG assay
Method: as §1, §2, §3, §4

N.N.[Cl][Pt][Cl] [Cisplatin, reference compound]
IC50 (T24): 3.71 µM | IC50 (MBT-2): 9.91 µM | IC50 (HCC1954): 13.2 µM | IC50 (EMT-6): 6.58 µM | IC50 (HCT116): 7.01 µM | IC50 (CT-26.WT): 7.48 µM | IC50 (MKN45): 6.7 µM | IC50 (MFC): 5.96 µM | IC50 (786-O): 3.68 µM | IC50 (Renca): 6.03 µM | IC50 (Hep G2): 8.49 µM | IC50 (H22): 2.17 µM | IC50 (HCC827): 15.1 µM | IC50 (LL/2(LLC1)): 10.6 µM | IC50 (A375): 5.36 µM | IC50 (B16-F10): 16.9 µM | IC50 (PANC-1): 13.8 µM | IC50 (Panc 02): 9.86 µM | IC50 (DU145): 3.59 µM | IC50 (RM-1): 3.83 µM | TV (tumor volume) ([1]; G2, 1 mg/kg i.v. BIW, 0 day (baseline)): 75.96 mm^3 | TGI (tumor growth inhibition) ([1]; G2, 1 mg/kg i.v. BIW, 3 days): −3.49% | TV (tumor volume) ([1]; G2, 1 mg/kg i.v. BIW, 3 days): 288.49 mm^3 | TGI (tumor growth inhibition) ([1]; G2, 1 mg/kg i.v. BIW, 5 days): 6.13% | TV (tumor volume) ([1]; G2, 1 mg/kg i.v. BIW, 5 days): 351.18 mm^3 | TGI (tumor growth inhibition) ([1]; G2, 1 mg/kg i.v. BIW, 7 days): 22.78% | TV (tumor volume) ([1]; G2, 1 mg/kg i.v. BIW, 7 days): 597.48 mm^3 | TGI (tumor growth inhibition) ([1]; G2, 1 mg/kg i.v. BIW, 10 days): 30.23% | TV (tumor volume) ([1]; G2, 1 mg/kg i.v. BIW, 10 days): 821.76 mm^3 | TGI (tumor growth inhibition) ([1]; G2, 1 mg/kg i.v. BIW, 12 days): 36.46% | TV (tumor volume) ([1]; G2, 1 mg/kg i.v. BIW, 12 days): 1081.49 mm^3 | TGI (tumor growth inhibition) ([1]; G2, 1 mg/kg i.v. BIW, 14 days): 39.56% | TV (tumor volume) ([1]; G2, 1 mg/kg i.v. BIW, 14 days): 1627.00 mm^3

Dimyricetin-yl-diselenide
IC50 (T24): 7.69 µM | IC50 (MBT-2): 10.8 µM | IC50 (HCC1954): 9.86 µM | IC50 (EMT-6): 3.16 µM | IC50 (HCT116): 5.52 µM | IC50 (CT-26.WT): 5.65 µM | IC50 (MKN45): 12 µM | IC50 (MFC): 9.55 µM | IC50 (786-O): 5.14 µM | IC50 (Renca): 5.17 µM | IC50 (Hep G2): 12.6 µM | IC50 (H22): 6.64 µM | IC50 (HCC827): 10 µM | IC50 (LL/2(LLC1)): 14.6 µM | IC50 (A375): 5.2 µM | IC50 (B16-F10): 13.1 µM | IC50 (PANC-1): 10.3 µM | IC50 (Panc 02): 14.3 µM | IC50 (DU145): 8.79 µM | IC50 (RM-1): 5.12 µM | IC50 (SK-OV-3): 6.52 µM | tumor inhibition compared with the positive control (cisplatin) ([1]; 40 mg/kg dose group): better tumor inhibition than the positive control | TV (tumor volume) ([1]; G3, 40 mg/kg s.c. QD, 0 day (baseline)): 75.71 mm^3 | TGI (tumor growth inhibition) ([1]; G3, 40 mg/kg s.c. QD, 3 days): 9.88% | TV (tumor volume) ([1]; G3, 40 mg/kg s.c. QD, 3 days): 257.17 mm^3 | TGI (tumor growth inhibition) ([1]; G3, 40 mg/kg s.c. QD, 5 days): 5.58% | TV (tumor volume) ([1]; G3, 40 mg/kg s.c. QD, 5 days): 355.24 mm^3 | TGI (tumor growth inhibition) ([1]; G3, 40 mg/kg s.c. QD, 7 days): 34.02% | TV (tumor volume) ([1]; G3, 40 mg/kg s.c. QD, 7 days): 532.85 mm^3 | TGI (tumor growth inhibition) ([1]; G3, 40 mg/kg s.c. QD, 10 days): 41.86% | TV (tumor volume) ([1]; G3, 40 mg/kg s.c. QD, 10 days): 711.79 mm^3 | TGI (tumor growth inhibition) ([1]; G3, 40 mg/kg s.c. QD, 12 days): 38.64% | TV (tumor volume) ([1]; G3, 40 mg/kg s.c. QD, 12 days): 1066.44 mm^3 | TGI (tumor growth inhibition) ([1]; G3, 40 mg/kg s.c. QD, 14 days): 60.23% | TV (tumor volume) ([1]; G3, 40 mg/kg s.c. QD, 14 days): 1108.65 mm^3 | TV (tumor volume) ([1]; G4, 20 mg/kg s.c. QD, 0 day (baseline)): 75.31 mm^3 | TGI (tumor growth inhibition) ([1]; G4, 20 mg/kg s.c. QD, 3 days): 29.01% | TV (tumor volume) ([1]; G4, 20 mg/kg s.c. QD, 3 days): 218.25 mm^3 | TGI (tumor growth inhibition) ([1]; G4, 20 mg/kg s.c. QD, 5 days): 19.28% | TV (tumor volume) ([1]; G4, 20 mg/kg s.c. QD, 5 days): 314.27 mm^3 | TGI (tumor growth inhibition) ([1]; G4, 20 mg/kg s.c. QD, 7 days): 32.35% | TV (tumor volume) ([1]; G4, 20 mg/kg s.c. QD, 7 days): 544.04 mm^3 | TGI (tumor growth inhibition) ([1]; G4, 20 mg/kg s.c. QD, 10 days): 39.14% | TV (tumor volume) ([1]; G4, 20 mg/kg s.c. QD, 10 days): 741.18 mm^3 | TGI (tumor growth inhibition) ([1]; G4, 20 mg/kg s.c. QD, 12 days): 29.67% | TV (tumor volume) ([1]; G4, 20 mg/kg s.c. QD, 12 days): 1210.83 mm^3 | TGI (tumor growth inhibition) ([1]; G4, 20 mg/kg s.c. QD, 14 days): 43.53% | TV (tumor volume) ([1]; G4, 20 mg/kg s.c. QD, 14 days): 1542.11 mm^3 | inhibitory effect on the liver cancer tumor model in vivo ([1]; H22 model, 40 and 20 mg/kg s.c.): significant inhibitory effect | inhibitory effect on tumor cells in vitro (tumor cells): significant inhibitory effect
